Laboratory results as given in the NIST ThermoML archive (doi:10.1016/j.jct.2013.02.023).

Experiment: molar heat capacity at constant pressure
Settings: 101.33 kPa, relaxation calorimetry - Quantum Design PPMS

O=P([O-])([O-])OP(=O)([O-])[O-].O=P([O-])([O-])OP(=O)([O-])[O-].O=P([O-])([O-])OP(=O)([O-])[O-].[Fe+3].[Fe+3].[Fe+3].[Fe+3] [iron(III) diphosphate]
molar heat capacity at constant pressure [J/K/mol]
Settings	Crystal 1	Crystal 2
45.43 K	–	122.94
45.64 K	–	124.36
45.84 K	–	125.76
46.02 K	–	126.95
46.22 K	–	128.47
46.44 K	–	130.17
46.64 K	–	131.93
46.84 K	–	133.84
47.05 K	–	135.68
47.24 K	–	137.48
47.38 K	–	138.74
47.44 K	–	139.11
47.58 K	–	139.19
47.6 K	139.19	139.19
47.65 K	138.86	–
47.77 K	136.97	–
47.84 K	134.84	–
47.97 K	130.03	–
48.05 K	126.52	–
48.16 K	121.47	–
48.26 K	116.89	–
48.36 K	112.95	–
48.42 K	110.73	–
48.55 K	107.38	–
48.66 K	105.62	–
48.76 K	103.95	–
48.97 K	102.08	–
49.16 K	101.07	–
49.25 K	100.78	–
49.37 K	100.37	–
49.56 K	99.82	–
49.74 K	99.5	–
49.76 K	99.49	–
49.97 K	99.12	–
50 K	99.09	–
50.16 K	98.85	–
50.24 K	98.89	–
50.37 K	98.71	–
50.75 K	98.49	–
51.26 K	98.47	–
51.78 K	98.62	–
52.26 K	99.14	–
52.77 K	99.39	–
53.27 K	99.87	–
53.79 K	100.51	–
53.8 K	100.65	–
54.3 K	101.12	–
54.8 K	101.89	–
55 K	102.2	–
55.3 K	102.66	–
55.82 K	103.45	–
56.32 K	104.29	–
56.83 K	105.21	–
57.33 K	106.12	–
57.82 K	106.98	–
58.35 K	107.99	–
58.86 K	109.04	–
59.33 K	110.07	–
59.86 K	111.09	–
60 K	111.36	–
60.37 K	112.09	–
61.22 K	114	–
62.42 K	116.32	–
63.41 K	118.45	–
64.42 K	120.61	–
65 K	121.89	–
65.42 K	122.92	–
66.42 K	124.93	–
67.44 K	127.27	–
68.45 K	129.47	–
69.47 K	131.89	–
70 K	133.03	–
70.48 K	134.15	–
71.49 K	136.51	–
72.5 K	138.68	–
73.5 K	141.06	–
73.58 K	141.14	–
74.51 K	143.36	–
75 K	144.64	–
75.53 K	145.73	–
76.55 K	148.3	–
77.56 K	150.74	–
78.57 K	153.39	–
79.58 K	155.6	–
80 K	156.55	–
80.59 K	158.26	–
81.7 K	160.54	–
85 K	168.61	–
90 K	180.67	–
90.71 K	182.62	–
95 K	193.23	–
100 K	205.34	–
100.7 K	205.22	–
110 K	227.92	–
110.85 K	227.84	–
120 K	248.76	–
120.85 K	248.93	–
130 K	268.26	–
130.93 K	269.49	–
140 K	286.79	–
141.05 K	288.92	–
150 K	304.56	–
151.1 K	307	–
160 K	321.72	–
161.21 K	324.93	–
170 K	338.34	–
171.22 K	342.32	–
180 K	354.45	–
181.32 K	357.51	–
190 K	370.05	–
191.45 K	374.2	–
200 K	385.13	–
201.57 K	387.79	–
210 K	399.67	–
211.7 K	401.38	–
220 K	413.65	–
221.82 K	416.43	–
230 K	427.07	–
231.97 K	429	–
240 K	439.91	–
242.05 K	440.09	–
250 K	452.18	–
252.07 K	452.65	–
260 K	463.87	–
262.14 K	465.23	–
270 K	475	–
272.29 K	475.97	–
273.15 K	478.39	–
280 K	485.58	–
282.37 K	488.57	–
290 K	495.63	–
292.36 K	498.4	–
298.15 K	503.44	–
300 K	505.16	–
302.55 K	510.46	–
